Assay results from US20240166612A1, “ARYLTHIOETHER ACETAMIDE AND RELATED COMPOUNDS AND THEIR USE IN TREATING MEDICAL CONDITIONS” (X-Biotix Therapeutics, Inc., priority 2021, published 2024).
Values after ≈ are worked out from the molar mass of the structure shown.

What was measured:
P. aeruginosa LESB58 = assay: Broth microdilution MIC, P. aeruginosa LESB58; assay type: cell-based; conditions: Pseudomonas aeruginosa; P. aeruginosa LESB58 clinical isolate, colistin-resistant, 37° C., 18 h
Method: (§1) Exemplary compounds from the above Examples were tested to determine their minimum inhibitory concentration (MIC) for exemplary strains of Escherichia and Pseudomonas bacteria using broth microdilution methods. Assay procedures and results are described below.
(§2) Broth microdilution assays were conducted according to Clinical and Laboratory Standards Institute guidelines (CLSI, M07-A^11: Clinical and Laboratory Standards Institute. Methods for Dilution Antimicrobial Susceptibility Tests for Bacteria that Grow Aerobically; Approved Standard-11th Edition. Wayne, PA: CLSI, 2018). Briefly, bacterial suspensions were adjusted to a density equivalent to a 0.5 McFarland standard and diluted in sterile, cation-adjusted Mueller-Hinton broth (Beckton Dickinson) to yield a final inoculum between 2×10^5 and 8×10^5 colony-forming units (CFU)/mL. An inoculum volume of 98 μL was added to wells containing 2 μL of 2-fold serial dilutions of drug (prepared in DMSO). All inoculated microdilution trays were incubated in ambient air at 37° C. for 18 h. […] Performance of the assay was monitored by the use of laboratory quality-control strains (S. aureus ATCC 29213 and P. aeruginosa ATCC 27853) and levofloxacin, a compound with a defined MIC spectrum, in accordance with CLSI guidelines (CLSI, M100Ed29: Clinical and Laboratory Standards Institute. Performance Standards for Antimicrobial Susceptibility Testing, 29th Edition. Wayne, PA: CLSI, 2018).
(§3) Multiple enterobacteriaceae strains were tested, including both wild-type strains and multi-drug resistance pump deficient mutants. Specific strains tested included the following: • Wild-type P. aeruginosa PAO1, • P. aeruginosa PAO1 ΔmexABoprM—Disabled multi-drug efflux system Δ(MexAB-OprM), • P. aeruginosa PAO397—PAO1Δ(mexAB-oprM) Δ(mexCD-oprJ) Δ(mexEF-oprN) Δ(mexJK) Δ(mexXY) ΔopmH, • P. aeruginosa LESB58—Clinical isolate; colistin-resistant, isolated in the United Kingdom in 1988 from a patient with cystic fibrosis • E. coli JW0452-3 (BW25113 JacrA::kan)—Disabled multi-drug efflux system (AcrAB-TolC).
(§4) Experimental results are provided in Table 11, which provides MIC values for wild-type P. aeruginosa PAO1 (“PAO1 WT MIC”), P. aeruginosa PAO ΔmexABoprM (“PAO1 KO MIC”), P. aeruginosa PAO397 (“PAO397 KO MIC”), P. aeruginosa LESB58 (“LESB58”), and E. coli JW0452-3 (BW25113 JacrA::kan) (“E. coli KO MIC”).

[1] = test system: Wild-type P. aeruginosa PAO1; assay: Broth microdilution MIC, wild-type P. aeruginosa PAO1; assay type: cell-based; conditions: Pseudomonas aeruginosa; wild-type P. aeruginosa PAO1, 37° C., 18 h; read-out: PAO1 WT MIC
Method: as §1, §2, §3, §4

P. aeruginosa PAO397 = assay: Broth microdilution MIC, P. aeruginosa PAO397; assay type: cell-based; conditions: Pseudomonas aeruginosa, PAO397, 18 h, read-out: PAO397 KO MIC
Method: as §1, §2, §3, §4

[2] = target: T1, recombinant LpxA enzyme (P. aeruginosa) (Pseudomonas aeruginosa, UniProt Q9X6P4); assay: LpxA in vitro substrate acylation assay with RapidFire MS analysis (P. aeruginosa); assay type: biochemical; conditions: P. aeruginosa enzyme 0.5 nM, PaACP-C10, 30 min
T1 sequence (Q9X6P4 1-258): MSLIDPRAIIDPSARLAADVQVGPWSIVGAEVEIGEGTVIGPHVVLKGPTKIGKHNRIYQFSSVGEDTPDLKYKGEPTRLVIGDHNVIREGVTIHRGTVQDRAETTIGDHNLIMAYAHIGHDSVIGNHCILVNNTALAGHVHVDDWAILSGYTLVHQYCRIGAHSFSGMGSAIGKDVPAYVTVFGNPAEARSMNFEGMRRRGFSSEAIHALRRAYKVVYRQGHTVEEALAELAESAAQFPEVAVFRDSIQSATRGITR
Method: Exemplary compounds from the above Examples were tested for ability to inhibit LpxA activity using an in vitro substrate acylation assay with RapidFire™ MS analysis. Assay procedures and results are described below.
Reactions were carried out in a final volume of 30 μL with 25 mM HEPES (pH 7.3), 150 mM NaCl, 2 mM DTT, 0.01% BSA, 5 μM UDP-GlcNac, recombinant LpxA enzyme (0.5 nM P. aeruginosa or 1.0 nM E. coli, both produced at Evotec), 0.5 μM acyl-transfer reagent (decanoyl P. aeruginosa acyl-carrier protein [PaACP-C10] or myristoyl E. coli acyl-carrier protein [EcACP-C1-4], both produced at Evotec), and 1% DMSO containing test compound. After 30 min incubation at room temperature, reactions were stopped by addition of 30 μL of 10% TCA in water.
Samples were centrifuged (4350 rpm, 4° C., 5 min), and then subjected to RapidFire™ MS analysis on an Agilent RapidFire 300 coupled to an Agilent 6460 triple-quadrupole mass spectrometer. Analytes were retained on a C4 (type A) cartridge using the following solvents and flow rates: • Pump 1—H2O with 5 mM NH4OAc at 2.0 mL/min, • Pump 2—MeOH/H2O (90/10) at 1.5 mL/min, • Pump 3—MeOH/H2O (90/10) at 0.5 mL/min, and • Pump 4—ACN (organic)/H2O (aqueous). Substrate and product of the reaction were detected in negative mode ESI-MS/MS by MRM (multiple reaction monitoring) of transitions 606.0/385.0 (UDP-GlcNAc substrate) and 776.2/385.0 (UDP-3-O—(R-3-hydroxydecanoyl)-GlcNAc product, for P. aeruginosa LpxA assay) or 832.2/385.0 (UDP-3-O—(R-3-hydroxymyristoyl)-GlcNAc product, for E. coli LpxA assay).
For IC50 determinations, peak areas of the substrate and product were compared to compute the proportion of product formed by the LpxA enzyme at each compound concentration.

| SMILES | MIC (P. aeruginosa LESB58) | MIC [1] | MIC (P. aeruginosa PAO397) | IC50 [2] |
| --- | --- | --- | --- | --- |
| CCc1c(F)cc(F)cc1OC(C)C(=O)N(Cc1nnc(N)o1)Cc1ccc(C#N)cc1F (single isomer, unassigned) [Compound No. 100] | 1 to 16 µg/mL (≈ 2.18 to 34.8 µM) | 1 to 16 µg/mL (≈ 2.18 to 34.8 µM) |  |  |
| N#Cc1ccc(CN(CC(=O)NC2COC2)C(=O)CSc2ccccc2Cl)cc1 [Compound No. 1, 2-[[2-(2-Chlorophenyl)sulfanylacetyl]-[(4-cyanophenyl)methyl]amino]-N-(oxetan-3-yl)acetamide] |  |  | 1 to 16 µg/mL (≈ 2.33 to 37.2 µM) |  |
| NCc1ccc(CN(Cc2nnc(N)o2)C(=O)CSc2ccccc2Cl)cc1 [Compound No. 61, N-[[4-(Aminomethyl)phenyl]methyl]-N-[(5-amino-1,3,4-oxadiazol-2-yl)methyl]-2-(2-chlorophenyl)sulfanyl-acetamide] |  | > 64 µg/mL | 16 to 64 µg/mL (≈ 38.3 to 153 µM) | > 1 µM |
| N#Cc1ccc(CN(CC(=O)NC2CCNCC2)C(=O)CSc2ccccc2Cl)cc1 [compound 4] |  | > 64 µg/mL | 16 to 64 µg/mL (≈ 35 to 140 µM) |  |
| N#Cc1ccc(CN(Cc2nnc(N)o2)C(=O)COc2ccccc2Cl)cn1 [compound 17] |  | > 64 µg/mL | 1 to 16 µg/mL (≈ 2.51 to 40.1 µM) |  |
| N#Cc1ccc(CN(C(=O)CSc2ccccc2Cl)C2(c3nnc(N)o3)CC2)cc1 [compound 22] |  | > 64 µg/mL | 1 to 16 µg/mL (≈ 2.27 to 36.4 µM) |  |
| N#Cc1ccc(CN(C(=O)CSc2ccccc2Cl)C2(c3nnc(N)o3)CC2)c(F)c1 [compound 23] |  | > 64 µg/mL | 1 to 16 µg/mL (≈ 2.18 to 34.9 µM) | 0.02 to 0.1 µM |
| N#Cc1ccc(CN(Cc2cc[nH]n2)C(=O)CSc2ccccc2Cl)cc1 [compound 49] |  | > 64 µg/mL | 1 to 16 µg/mL (≈ 2.52 to 40.3 µM) | 0.1 to 1 µM |
| N#Cc1ccc(CN(Cc2cn[nH]c2)C(=O)CSc2ccccc2Cl)cc1 [compound 50] |  | > 64 µg/mL | 1 to 16 µg/mL (≈ 2.52 to 40.3 µM) | 0.1 to 1 µM |
| CC(C)c1ccccc1OCC(=O)N(Cc1ccc(C#N)cc1)Cc1nnc(N)o1 [compound 53] |  | > 64 µg/mL | 1 to 16 µg/mL (≈ 2.47 to 39.5 µM) |  |
| N#Cc1ccc(CN(Cc2ccc3cn[nH]c3c2)C(=O)CSc2ccccc2Cl)cc1 [compound 71] |  | > 64 µg/mL |  | > 1 µM |
| Cc1ncc(CN(Cc2ccc(C#N)cc2)C(=O)CSc2ccccc2Cl)[nH]1 [compound 75] |  | > 64 µg/mL | 1 to 16 µg/mL (≈ 2.43 to 38.9 µM) |  |
| [2H]C([2H])(Oc1cc(F)cc(F)c1C([2H])([2H])C([2H])([2H])[2H])C(=O)N(Cc1nnc(N)o1)Cc1ccc(C#N)cc1F [compound 77, N-[(5-amino-1,3,4-oxadiazol-2-yl)methyl]-N-[(4-cyano-2-fluoro-phenyl)methyl]-2,2-dideuterio-2-[3,5-difluoro-2-(1,1,2,2,2-pentadeuterioethyl)phenoxy]acetamide] | 1 to 16 µg/mL (≈ 2.21 to 35.4 µM) | 1 to 16 µg/mL (≈ 2.21 to 35.4 µM) |  |  |
| CCc1c(F)cc(F)cc1OCC(=O)N(Cc1nnc(N)o1)Cc1ccc(S(N)(=O)=O)cc1F [compound 79, N-[(5-Amino-1,3,4-oxadiazol-2-yl)methyl]-2-(2-ethyl-3,5-difluoro-phenoxy)-N-[(2-fluoro-4-sulfamoyl-phenyl)methyl]acetamide] | 1 to 16 µg/mL (≈ 2 to 32 µM) | 1 to 16 µg/mL (≈ 2 to 32 µM) |  |  |
| Nc1nnc(CN(Cc2ccc(S(N)(=O)=O)cc2F)C(=O)COc2cc(F)cc(F)c2C2CC2)o1 [compound 80] | 1 to 16 µg/mL (≈ 1.96 to 31.3 µM) | 16 to 64 µg/mL (≈ 31.3 to 125 µM) |  |  |
| N#Cc1ccc(CN(Cc2nnc(N)o2)C(=O)COc2cc(F)cc(F)c2C2CC2)c(F)c1 [compound 81] | 1 to 16 µg/mL (≈ 2.19 to 35 µM) | 16 to 64 µg/mL (≈ 35 to 140 µM) |  |  |
| [2H]C([2H])(Oc1cc(F)cc(F)c1C([2H])([2H])C([2H])([2H])[2H])C(=O)N(Cc1ccc(C#N)nc1)Cc1nnc(N)o1 [compound 82] | 16 to 64 µg/mL (≈ 36.7 to 147 µM) | > 64 µg/mL |  |  |

| SMILES | MIC (P. aeruginosa LESB58) | MIC [1] | MIC (P. aeruginosa PAO397) | IC50 [2] |
| --- | --- | --- | --- | --- |
| N#Cc1ccc(CN(Cc2nnc(N)o2)C(=O)COc2cc(F)cc(F)c2C2CC2)cn1 [compound 85] | 16 to 64 µg/mL (≈ 36.3 to 145 µM) | > 64 µg/mL |  |  |
| CCc1ccccc1SCC(=O)N(CC(=O)NC)Cc1ccc(-n2cncn2)cc1 [compound 90] |  | > 64 µg/mL |  | 0.1 to 1 µM |
| CNC(=O)CN(Cc1ccc(-n2cncn2)cc1)C(=O)CSc1ccccc1Cl [compound 91] |  | > 64 µg/mL |  |  |
| C[C@@H](Sc1cc(F)cc(F)c1Cl)C(=O)N(Cc1nnc(N)o1)Cc1ccc(C#N)cc1F [compound 98] | > 64 µg/mL | > 64 µg/mL |  |  |
| N#Cc1ccc(CN(Cc2nnc(N)o2)C(=O)/C=C/c2ccccc2Cl)c(F)c1 [compound 99] | > 64 µg/mL | > 64 µg/mL |  |  |
| CCc1c(F)cc(F)cc1O[C@@H](C)C(=O)N(Cc1nnc(N)o1)Cc1ccc(C#N)cc1F [compound 101] | > 64 µg/mL | > 64 µg/mL |  |  |
| C[C@H](Sc1cc(F)cc(F)c1Cl)C(=O)N(Cc1nnc(N)o1)Cc1ccc(C#N)cc1F [compound 103] | > 64 µg/mL | > 64 µg/mL |  |  |
| [2H]C([2H])(Oc1cc(F)cc(F)c1C([2H])([2H])C([2H])([2H])[2H])C(=O)N(Cc1nnc(N)o1)Cc1ccc(S(N)(=O)=O)cc1F [compound 111, N-[(5-Amino-1,3,4-oxadiazol-2-yl)methyl]-2,2-dideuterio-2-[3,5-difluoro-2-(1,1,2,2,2-pentadeuterioethyl)phenoxy]-N-[(2-fluoro-4-sulfamoyl-phenyl)methyl]acetamide] | 1 to 16 µg/mL (≈ 1.97 to 31.6 µM) | 16 to 64 µg/mL (≈ 31.6 to 126 µM) |  |  |
| [2H]CC([2H])c1c(F)cc(F)cc1OCC(=O)N(Cc1nnc(N)o1)Cc1ccc(C#N)cc1F (stereo not shown) [compound 112] | 1 to 16 µg/mL (≈ 2.24 to 35.8 µM) | 1 to 16 µg/mL (≈ 2.24 to 35.8 µM) |  |  |
| [2H]C([2H])C([2H])([2H])c1ccccc1OCC(=O)N(Cc1nnc(N)o1)Cc1ccc(C#N)cc1F [compound 113] | 16 to 64 µg/mL (≈ 38.7 to 155 µM) | > 64 µg/mL |  |  |
| [2H]C([2H])(Oc1ccccc1C([2H])([2H])C([2H])([2H])[2H])C(=O)N(Cc1nnc(N)o1)Cc1ccc(C#N)cc1F [compound 114] | 16 to 64 µg/mL (≈ 38.4 to 154 µM) | > 64 µg/mL |  |  |
| N#Cc1ccc(CN(Cc2nnc(N)o2)C(=O)CSc2cc(CN)ccc2Cl)cn1 [compound 115] |  | > 64 µg/mL |  |  |
| C[C@H](Oc1ccccc1Cl)C(=O)N(Cc1ccc(C#N)cc1)Cc1nnc(N)o1 [compound 117] |  |  |  | > 1 µM |
| N#Cc1ccc(CN(Cc2nnc(N)o2)C(=O)CSc2ccccc2CC(F)(F)F)c(F)c1 [compound 118] | > 64 µg/mL | > 64 µg/mL |  |  |
| NCCOc1ccc(Cl)c(SCC(=O)N(Cc2ccc(C(N)=O)c(C(=O)O)c2)Cc2nnc(N)o2)c1 [compound 119] |  |  |  | > 1 µM |
| Nc1nnc(CN(Cc2ccc(S(N)(=O)=O)cc2)C(=O)COc2cc(F)cc(F)c2Cl)o1 [compound 120] | 16 to 64 µg/mL (≈ 32.8 to 131 µM) | > 64 µg/mL |  |  |
| N#Cc1ccc(CN(Cc2nnc(N)o2)C(=O)COc2ccc(F)cc2Cl)c(F)c1 [compound 121] | > 64 µg/mL | > 64 µg/mL |  |  |
